Experimental findings from paper PMC4563141, “Reverse Engineering of Vaccine Antigens Using High Throughput Sequencing-enhanced mRNA Display” (EBioMedicine, 2015) are described below.

Assay [1] relates to mAb41 Fab. The experiment in a line: Affinity measurements by Octet (binding kinetics of mAb41 Fab to biotinylated peptides). Further details: species or system mice. Conditions: Octet RED, 1:1 model fit. As to the method:
Binding kinetics of mAb41 Fab to selected peptides were measured using a Fortebio Octet Red 96 instrument (Menlo Park, CA). All assays were performed in 1 × kinetic buffer (Fortebio). Biotinylated peptides were loaded onto streptavidin biosensors (Fortebio) for 100 s and quenched with biocytin. A two-fold dilution series of antibody Fab (prepared using a mouse IgG1 kit, Pierce) was used as analyte. Association was performed for 300 s and dissociation for 900 s. Binding constants were obtained by fitting sensorgrams with a 1:1 model using ForteBio Data Analysis Software.
(In BLI a coated tip is dipped into the sample, and binding shifts an interference pattern.)

In assay [2] the test system is mAb41. The experiment in a line: Competitive ELISA for binding of mAb41 to immobilized peptide B. Further details: species or system mice. To be noted: 1 μg biotinylated pB immobilized, 12 ng mAb41, competitor peptide 0 to 0.8 μg. As for the experimental part: Streptavidin coated 96-well ELISA plates were coated with 1 μg/well biotinylated peptide B as previously described ([Major et al., 1999]). Equal amounts of mAb (12 ng in 100 μl PBS containing 5% milk) were added to each well with increasing amounts of competitor peptide (from 0 to 0.8 μg). After 1 hr incubation at room temperature and washing, secondary antibody was added. The substrate reaction and absorbance reading were performed as described above.
(In an ELISA, binding on a coated surface is turned into a signal by an enzyme label.)

SMILES strings stand for the structures. Peptide text beside a SMILES is read from it.

For `CSCC[C@H](NC(=O)[C@@H](N)CCSC)C(=O)N[C@@H](CCC(=O)O)C(=O)N[C@@H](CS)C(=O)N[C@@H](CCC(=O)O)C(=O)N[C@@H](CCCCN)C(=O)NCC(=O)N[C@@H](CCCCN)C(=O)N[C@@H](Cc1ccc(O)cc1)C(=O)N[C@H](C(=O)N[C@@H](CCC(N)=O)C(=O)NCC(=O)N[C@@H](Cc1c[nH]c2ccccc12)C(=O)N[C@@H](CC(C)C)C(=O)N[C@@H](CS)C(=O)N[C@@H](Cc1c[nH]cn1)C(=O)N[C@@H](CC(C)C)C(=O)N[C@@H](Cc1ccccc1)C(=O)N[C@@H](Cc1c[nH]c2ccccc12)C(=O)N[C@@H](CCC(=O)O)C(=O)N[C@@H](CC(=O)O)C(=O)N[C@@H](CS)C(=O)N[C@@H](CCC(N)=O)C(=O)N[C@@H](CC(=O)O)C(=O)N[C@@H](CCCNC(=N)N)C(=O)NCC(=O)N[C@@H](Cc1c[nH]c2ccccc12)C(=O)N[C@@H](CC(C)C)C(=O)N[C@@H](CCC(=O)O)C(=O)N[C@@H](CCC(N)=O)C(=O)N[C@@H](CC(C)C)C(=O)N[C@@H](CCCNC(=N)N)C(=O)N[C@@H](CC(N)=O)C(=O)N[C@@H](CO)C(=O)N[C@@H](CS)C(=O)N[C@@H](C)C(=O)O)C(C)C` [p41_1] (H-MMECEKGKYVQGWLCHLFWEDCQDRGWLEQLRNSCA-OH; N-terminus and C-terminus assumed), the kon – broadly, a measure of how fast the partners come together – in assay [1] (association 300 s) worked out at 14400 M⁻¹ s⁻¹. Further, the Kd (as a rule, a measure of binding affinity in units of concentration) in assay [1] (biotinylated peptide on streptavidin biosensor, mAb41 Fab 125 nM to 7.8 nM 2-fold series) was determined as 16.7 nM. Besides, in assay [1] (dissociation 900 s), the “kdis” value was 0.000241 s⁻¹. In addition, the “competition with wild type pB for binding to mAb41” value in assay [2] is listed as “inhibited binding of mAb41 to immobilized pB”.
